Laboratory results taken from patent US8846329B1, “Microorganisms for producing organic acids” (Wisconsin Alumni Research Foundation, priority 2012, dated 2014).
Values after ≈ are worked out from the molar mass of the structure shown. Where two headings read alike, the source gives them in different places.

How the values were obtained:
[1] = test system: Synechocystis sp. PCC 6803; assay: Minimum inhibitory concentration of organic acids; type: cell-based; settings: for MIC: Synechocystis; for Minimum inhibitory concentration: Table 3
Text: (§1) One aspect of the increased tolerance to organic acids is an increase in the minimal inhibitory concentration (MIC) of a particular organic acid compared to a corresponding microorganism. MIC is the lowest concentration of an agent that will inhibit growth of a microorganism. An MIC can be determined by titrating the agent in the growth medium of the microorganism. The lowest concentration of the agent in which the microorganism is no longer able to grow is the MIC. Methods of culturing microorganisms and of detecting their growth are well known in the art and are not discussed in detail herein.
(§2) Because of this, the toxicity of organic acids generally increases with the hydrophobicity of the compound [35]. The minimum inhibitory concentrations (MIC) for PCC 7002, Synechococcus sp. PCC 7942, and Synechocystis sp. PCC 6803 were determined for acrylic acid, 3HP, and propionic acid at a pH of about 8 (Table 1). […] The low MIC for acrylic acid explains why cultures grown with DMSP become growth inhibited. Cultures with DMSP only show growth inhibition when the accumulating acrylic acid concentration reaches inhibitory concentrations.
(§3) Homologous genes were identified in the cyanobacteria Synechocystis sp. PCC 6803 (s110542; SEQ ID NOS:3 and 4) and Synechococcus sp. PCC 7942 (SYNPCC7942—1342; SEQ ID NOS:5 and 6). […] When selecting for growth of Synechocystis sp. PCC 6803 on 50 μM acrylic acid, the mutation frequency was 2×10^−6.

PCC 6803 sll0542::KmR = assay: Minimum inhibitory concentration, deletion strain; type: cell-based, Synechocystis sp. PCC 6803; settings: Synechocystis; Table 3
Method: (§4) Deletion and complementation studies were performed in various Synechococcus spp. and Synechocystis spp. Replacement of the gene acsA in Synechococcus sp. […] An identical level of increase was observed when acsA was replaced with a 20 base-pair barcode sequence. This phenotype was complemented in an acsA deletion strain by expression of acsA under the native promoter in another locus on the chromosome (glpK).
as §3

[2] = test system: Synechococcus sp. PCC 7002; assay: Minimum inhibitory concentration of organic acids / growth inhibition; type: cell-based; settings: for MIC: Synechococcus; for Minimum inhibitory concentration: Table 3
Text: as §1
(§5) The minimum inhibitory concentrations (MIC) for PCC 7002, Synechococcus sp. PCC 7942, and Synechocystis sp. PCC 6803 were determined for acrylic acid, 3HP, and propionic acid at a pH of about 8 (Table 1).

[3] = test system: PCC 7002 acsA:BC glpK::acsA aadA; assay: Minimum inhibitory concentration, acsA complementation strain; type: cell-based, Synechococcus sp. PCC 7002; settings: Synechococcus, read-out: Minimum inhibitory concentration
Method: as §4

[4] = test system: Synechococcus sp. PCC 7942; assay: Minimum inhibitory concentration of organic acids; type: cell-based; settings: for MIC: Synechococcus; for Minimum inhibitory concentration: Table 3
Text: as §1, §2

PCC 7002 acsA::aadA = assay: microbe, parasite or virus in culture; type: cell-based, Synechococcus sp. PCC 7002; settings: for Increase in MIC on functional deletion of the acsA gene product: Synechococcus sp. PCC 7002, pH of about 8
Method: This hypothesis was tested by creating a knockout mutant of the acsA gene. This knockout was created by transforming wild type PCC 7002 with a DNA construct that would replace the acsA gene with an antibiotic resistance marker through homologous recombination. The resulting mutant, ΔacsA, was challenged with concentrations of acrylic acid, 3HP, and propionic acid above WT PCC 7002 MIC levels.
Deletion and complementation studies were performed in various Synechococcus spp. and Synechocystis spp. Replacement of the gene acsA in Synechococcus sp.

AcsA = assay: Acyl-CoA ligase activity assay; type: biochemical, Synechococcus sp. PCC 7002; settings: 2 mM organic acid, 500 nM AcsA, CoA consumed in 4 min relative to acetate
Method: Acyl-CoA ligase purification: Escherichia coli BL21 containing plasmid pET28b with acsA were grown in 50 mL of LB to an OD600 nm of 0.6 and induced with 1 mM IPTG. The induced culture was shaken at 37° C. for 3 hrs. The culture was centrifuged and the resulting cell pellet was frozen at −20° C. The cell pellet was processed with Novagen BugBuster Protein Extraction Reagent (Part No. 70584-3). The resulting soluble protein fraction was used for His-tag purification using Ni-NTA agarose beads (Qiagen) and Pierce 0.8-mL centrifugation columns (Part No. 89868). Washes were done with 50 mM NaH2PO4, 300 mM NaCl, and 30 mM imidizole pH 8.0. The his-tagged protein was eluted with 50 mM NaH2PO4, 300 mM NaCl, and 250 mM imidizole pH 8.0. The insoluble fraction from the protein extraction was washed twice with BugBuster reagent followed by incubation with 400 μL 8M urea, 100 mM Tris-HCl, and 100 mM β-mercaptoethanol pH 8.2 for 30 min. The resulting solution was centrifuged at 16,000×g and the supernatant was collected. Protein fractions were run on a SDS-PAGE gel. His-tag purified protein fractions used in the acyl-CoA ligase assay were concentrated and buffered exchanged using an Amicon Ultra-4 centrifugation column. The buffer used for enzyme storage contained 0.1M NaH2PO4, 1 mM EDTA, and 10% v/v glycerol.
Acyl-CoA ligase activity assay: Acyl-CoA ligase activity was determined by measuring the loss of free Coenzyme A (CoA) over time using Ellman's reagent. (Riddles P W, Blakeley R L, & Zerner B (1979) Ellman's reagent: 5,5′-dithiobis(2-nitrobenzoic acid)—a reexamination. Analytical Biochemistry 94(1):75-81.) The enzyme reaction contained 10 mM ATP, 8 mM MgCl2, 3 mM CoA, 0.1 M NaH2PO4, 1 mM EDTA, and 2 mM of the organic acid species. The concentration of AcsA in the reaction was 500 nM. Relative activity was determined by the amount of CoA consumed in 4 min relative to an acetate control.

PCC 7002 A^+ = assay: Minimum inhibitory concentration, spontaneous acrylic acid-tolerant mutant; type: cell-based, Synechococcus sp. PCC 7002
Method: as §5

PCC 7002 acsA::BC = assay: Minimum inhibitory concentration, acsA barcode replacement strain; type: cell-based, Synechococcus sp. PCC 7002; settings: Synechococcus, read-out: Minimum inhibitory concentration
Method: as §4

[5] = test system: PCC 7002 acsA::BC glpK::acsAW49L aadA; assay: Minimum inhibitory concentration, acsAW49L complementation strain; type: cell-based, Synechococcus sp. PCC 7002; settings: Synechococcus, read-out: Minimum inhibitory concentration
Method: as §4

[6] = cited from earlier work
[7] = SP.PCC6803, read-out: Minimum inhibitory concentration
[8] = SP.PCC7002, read-out: Minimum inhibitory concentration
[9] = SP.PCC7942, read-out: Minimum inhibitory concentration

## O=C(O)CCO [3HP, 3-hydroxypropionic acid]
[1]; [7]
  MIC: > 35000 µM
PCC 6803 sll0542::KmR
  MIC: < 50000 µM
[2]; [8]
  MIC: 10000 µM (≈ 901 µg/mL)
[2]
  Minimum inhibitory concentration: 10000 µM (≈ 901 µg/mL)
[3]
  MIC: 15000 µM (≈ 1350 µg/mL)
[4]; [9]
  MIC: 2000 µM (≈ 180 µg/mL)
[4]
  Minimum inhibitory concentration: 2000 µM (≈ 180 µg/mL)
PCC 7002 acsA::aadA
  Increase in MIC on functional deletion of the acsA gene product: ≥ 26 fold
PCC 7002 acsA::aadA; ΔacsA mutant
  Concentration at which the ΔacsA mutant was able to grow without inhibition: > 500 mM
AcsA
  Acyl-CoA ligase activity of AcsA towards substrate: has an activity

## CC(=O)O [acetate, reference compound]
AcsA
  Acyl-CoA ligase activity of AcsA towards substrate: has an activity

## CCC(=O)O [propionic acid]
[1]; SP.PCC6803, Table 1, pH of about 8, no increase in OD730, read-out: Minimum inhibitory concentration
  MIC: 250 µM (≈ 18.5 µg/mL)
[1]
  Minimum inhibitory concentration: 250 µM (≈ 18.5 µg/mL)
[2]; SP.PCC7002, Table 1, pH of about 8, no increase in OD730, read-out: Minimum inhibitory concentration
  MIC: 4000 µM (≈ 296 µg/mL)
[2]
  Minimum inhibitory concentration: 4000 µM (≈ 296 µg/mL)
[4]; SP.PCC7942, Table 1, pH of about 8, no increase in OD730, read-out: Minimum inhibitory concentration
  MIC: 250 µM (≈ 18.5 µg/mL)
[4]
  Minimum inhibitory concentration: 250 µM (≈ 18.5 µg/mL)
PCC 7002 acsA::aadA
  Increase in MIC on functional deletion of the acsA gene product: ≥ 100 fold
AcsA
  Acyl-CoA ligase activity of AcsA towards substrate: has an activity

## C=CC(=O)O [acrylic acid]
PCC 7002 A^+; PCC 7002 A^+ vs WT
  Increase in tolerance over WT PCC 7002 MIC values: about 280 fold
PCC 7002 A^+; Synechococcus, Table 1, strain isolated from agar plate containing 5 mM acrylic acid
  MIC: 7000 µM (≈ 504 µg/mL)
PCC 7002 acsA::BC
  MIC: 70000 µM (≈ 5040 µg/mL)
[1]; [7]
  MIC: 50 µM (≈ 3.6 µg/mL)
[1]
  Minimum inhibitory concentration: 50 µM (≈ 3.6 µg/mL)
PCC 6803 sll0542::KmR
  MIC: 70000 µM (≈ 5040 µg/mL)
[2]; [8]
  MIC: 25 µM (≈ 1.8 µg/mL)
[2]
  Minimum inhibitory concentration: 25 µM (≈ 1.8 µg/mL)
[2]; growth by OD730
  Inhibitory concentration: less than 5 mM
[2]; toxicity increasing with decreasing pH
  pH dependence of toxicity: pH dependent
[3]
  MIC: 15 µM (≈ 1.08 µg/mL)
[4]; [9]
  MIC: 3 µM (≈ 0.216 µg/mL)
[4]
  Minimum inhibitory concentration: 3 µM (≈ 0.216 µg/mL)
[5]
  MIC: 7000 µM (≈ 504 µg/mL)
[6]
  pKa: 4.35
PCC 7002 acsA::aadA
  Increase in MIC on functional deletion of the acsA gene product: ≥ 2.800 fold
PCC 7002 acsA::aadA; Synechococcus, read-out: Minimum inhibitory concentration
  MIC: 70000 µM
AcsA
  Acyl-CoA ligase activity of AcsA towards substrate: has an activity
